Where two headings read alike, the source gives them in different places.
Columns and labels:
FGFR3 kinase = FGFR3 kinase (Homo sapiens, UniProt P22607); test: Z-Lyte Kinase Assay of FGFR3; type: biochemical
How it was run: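 Z-LYTE FRET assay, kinase 0.7 μg/ml with Tyr 4 peptide 4 μM (P/K solution), ATP diluted to 300 uM in 1.33× buffer; compound final 1 to 0.00046 μM, 2% DMSO.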

RT-112 = test: Cellular Proliferation Assay (Cell Counting Kit-8), RT-112; type: cell-based; conditions: Homo sapiens; RT-112 cells, 72 hours
How it was run: (§1)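 Seeding per well: KG-1 30000, SNU-16 5000, RT-112 1000 cells. After 24 h an 8-point series (working dilutions 10 to 0.004 μM in 5% DMSO) was added for 72 h at 37 °C, 5% CO2. CCK-8 OD450 after 1 h, corrected for media background and normalised to untreated cells, gave IC50.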

KG-1 = test: Cellular Proliferation Assay (Cell Counting Kit-8), KG-1; type: cell-based; conditions: Homo sapiens; KG-1 cells, 72 hours; read-out: KG1 IC50
How it was run: as §1

SNU-16 = test: Cellular Proliferation Assay (Cell Counting Kit-8), SNU-16; type: cell-based; conditions: Homo sapiens; SNU-16 cells, 72 hours
How it was run: as §1

Recombinant human FGFR1 = Recombinant human FGFR1 (Homo sapiens, UniProt P11362); test: Transcreener Kinase Assay of FGFR1; type: biochemical
Recombinant human FGFR1, sequence (P11362 22-822): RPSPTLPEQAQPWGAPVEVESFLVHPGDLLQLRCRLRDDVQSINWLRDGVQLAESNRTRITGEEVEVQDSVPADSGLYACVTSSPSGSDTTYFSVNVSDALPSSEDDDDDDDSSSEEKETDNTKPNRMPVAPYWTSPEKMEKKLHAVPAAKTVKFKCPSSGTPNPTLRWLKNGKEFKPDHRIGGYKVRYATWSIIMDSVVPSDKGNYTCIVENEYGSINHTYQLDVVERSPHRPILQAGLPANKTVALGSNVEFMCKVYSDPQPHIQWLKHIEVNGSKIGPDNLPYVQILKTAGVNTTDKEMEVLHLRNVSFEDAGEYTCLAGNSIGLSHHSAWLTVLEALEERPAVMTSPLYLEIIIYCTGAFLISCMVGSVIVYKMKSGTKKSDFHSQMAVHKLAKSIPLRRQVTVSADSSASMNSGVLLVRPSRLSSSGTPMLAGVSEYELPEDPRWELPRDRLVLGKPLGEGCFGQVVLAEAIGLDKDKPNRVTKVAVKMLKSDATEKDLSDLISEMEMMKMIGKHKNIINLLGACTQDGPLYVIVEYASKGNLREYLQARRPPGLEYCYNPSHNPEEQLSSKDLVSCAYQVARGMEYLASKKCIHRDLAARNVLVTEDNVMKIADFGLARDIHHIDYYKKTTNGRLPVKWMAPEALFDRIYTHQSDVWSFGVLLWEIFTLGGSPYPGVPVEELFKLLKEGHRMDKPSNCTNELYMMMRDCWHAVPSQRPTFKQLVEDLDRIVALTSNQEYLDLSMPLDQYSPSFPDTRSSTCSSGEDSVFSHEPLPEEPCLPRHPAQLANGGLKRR
How it was run: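 Recombinant human FGFR1 was reacted with Poly E4Y substrate and ATP for 45 min at 28 °C, with compounds at 1 to 0.0005 µM in 1% DMSO final. Inhibition is relative to the DMSO control, with IC50 from a curve fit.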

Recombinant human FGFR2 = Recombinant human FGFR2 (Homo sapiens, UniProt P21802); test: Transcreener Kinase Assay of FGFR2; type: biochemical
Recombinant human FGFR2, sequence (P21802 22-821): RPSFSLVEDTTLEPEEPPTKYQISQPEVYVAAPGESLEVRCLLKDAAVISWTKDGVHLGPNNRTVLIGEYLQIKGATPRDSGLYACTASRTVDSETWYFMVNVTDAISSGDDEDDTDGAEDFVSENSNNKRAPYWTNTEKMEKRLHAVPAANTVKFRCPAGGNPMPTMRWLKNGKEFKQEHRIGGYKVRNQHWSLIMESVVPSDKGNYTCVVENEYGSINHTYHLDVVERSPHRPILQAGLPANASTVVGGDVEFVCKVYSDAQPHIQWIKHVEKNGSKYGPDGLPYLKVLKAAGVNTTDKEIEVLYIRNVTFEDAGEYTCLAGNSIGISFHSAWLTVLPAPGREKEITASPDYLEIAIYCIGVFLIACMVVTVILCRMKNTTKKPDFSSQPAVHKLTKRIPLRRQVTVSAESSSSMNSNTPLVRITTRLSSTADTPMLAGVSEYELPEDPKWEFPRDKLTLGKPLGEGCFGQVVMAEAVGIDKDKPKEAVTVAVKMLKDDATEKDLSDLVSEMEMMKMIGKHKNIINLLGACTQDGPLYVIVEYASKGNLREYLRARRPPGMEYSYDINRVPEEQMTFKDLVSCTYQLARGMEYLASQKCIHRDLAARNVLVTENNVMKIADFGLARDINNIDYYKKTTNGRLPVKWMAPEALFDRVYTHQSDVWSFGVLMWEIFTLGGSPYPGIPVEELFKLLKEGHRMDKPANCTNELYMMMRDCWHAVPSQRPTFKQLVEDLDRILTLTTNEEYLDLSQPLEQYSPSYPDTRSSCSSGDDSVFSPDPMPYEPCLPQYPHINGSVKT

FGFR3 kinase, sequence (P22607 23-806): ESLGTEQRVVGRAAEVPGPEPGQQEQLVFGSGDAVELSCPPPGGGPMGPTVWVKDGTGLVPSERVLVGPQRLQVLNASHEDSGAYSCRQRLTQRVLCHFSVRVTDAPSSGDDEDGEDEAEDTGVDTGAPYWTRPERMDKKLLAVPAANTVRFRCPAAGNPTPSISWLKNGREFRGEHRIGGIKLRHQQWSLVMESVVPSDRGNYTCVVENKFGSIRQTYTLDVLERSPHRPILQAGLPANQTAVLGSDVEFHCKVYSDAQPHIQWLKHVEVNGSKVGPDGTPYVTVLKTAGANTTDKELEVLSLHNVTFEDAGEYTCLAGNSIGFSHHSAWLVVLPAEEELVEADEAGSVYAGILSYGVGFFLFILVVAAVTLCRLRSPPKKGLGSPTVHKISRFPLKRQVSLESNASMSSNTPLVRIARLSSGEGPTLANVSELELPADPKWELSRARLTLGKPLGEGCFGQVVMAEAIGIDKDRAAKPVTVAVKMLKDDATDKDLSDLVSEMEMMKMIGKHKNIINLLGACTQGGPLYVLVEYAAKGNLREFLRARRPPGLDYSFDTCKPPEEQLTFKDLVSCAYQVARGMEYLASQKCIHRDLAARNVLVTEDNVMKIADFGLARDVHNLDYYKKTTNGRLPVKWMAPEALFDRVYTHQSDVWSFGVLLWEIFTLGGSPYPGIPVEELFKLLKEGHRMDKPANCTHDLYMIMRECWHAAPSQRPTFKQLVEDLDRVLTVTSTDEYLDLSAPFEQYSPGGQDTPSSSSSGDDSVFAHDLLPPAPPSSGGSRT

Compound: CNC(=O)c1cc(CCc2cnc(Nc3ccc(N)cc3)nc2)c(Cl)c(OC)c1 [Compound 80]
- IC50 (FGFR3 kinase): 13 nM
- IC50 (RT-112): 44 nM
- IC50 (KG-1): 13 nM
- IC50 (SNU-16): 18 nM
- IC50 (Recombinant human FGFR1; read-out: FGFR1 (FP) IC50): 10 nM
- IC50 (Recombinant human FGFR2; read-out: FGFR2 (FP) IC50): 11 nM

Compound: CCN1CCN(c2ccc(Nc3ccc(CCc4cc(OC)cc(C(=O)NOC)c4)cn3)cc2)CC1 [Compound 73]
- IC50 (FGFR3 kinase): 25 nM
- IC50 (RT-112): 493 nM
- IC50 (KG-1): 70 nM
- IC50 (SNU-16): 65 nM
- IC50 (Recombinant human FGFR1; read-out: FGFR1 (FP) IC50): 9 nM
- IC50 (Recombinant human FGFR2; read-out: FGFR2 (FP) IC50): 8 nM

Compound: CNC(=O)c1cc(COc2cnc(Nc3ccc(-c4cnn(C)c4)cc3)nc2)c(F)c(OC)c1 [Compound 228]
- IC50 (FGFR3 kinase): 120 nM
- IC50 (RT-112): 270 nM
- IC50 (KG-1): 94 nM
- IC50 (SNU-16): 97 nM
- IC50 (Recombinant human FGFR1; read-out: FGFR1 (FP) IC50): 29 nM
- IC50 (Recombinant human FGFR2; read-out: FGFR2 (FP) IC50): 18 nM

Compound: CNC(=O)c1cc(COc2cnc(Nc3cnc(N4C[C@@H](C)N[C@@H](C)C4)nc3)nc2)c(Cl)c(OC)c1 [Compound 276]
- IC50 (FGFR3 kinase): 21 nM
- IC50 (RT-112): 140 nM
- IC50 (KG-1): 83 nM
- IC50 (SNU-16): 21 nM
- IC50 (Recombinant human FGFR1; read-out: FGFR1 (FP) IC50): 20 nM
- IC50 (Recombinant human FGFR2; read-out: FGFR2 (FP) IC50): 23 nM

Compound: CNC(=O)c1cc(COc2cnc(Nc3cnc(N4C[C@@H](C)N[C@@H](C)C4)c(C)c3)nc2)c(Cl)c(OC)c1 [Compound 287]
- IC50 (FGFR3 kinase; Z-lyte): 8 nM
- IC50 (RT-112): 35 nM
- IC50 (KG-1): 54 nM
- IC50 (SNU-16): 14 nM
- IC50 (Recombinant human FGFR1; FP): 11 nM
- IC50 (Recombinant human FGFR2; FP): 8 nM

Compound: CNC(=O)c1cc(OC)c(F)c(COc2cnc(Nc3ccc(N4C[C@@H](C)N[C@@H](C)C4)nc3)nc2)c1F [Compound 278]
- IC50 (FGFR3 kinase; Z-lyte): 20 nM
- IC50 (RT-112): 65 nM
- IC50 (KG-1): 34 nM
- IC50 (SNU-16): 27 nM
- IC50 (Recombinant human FGFR1; FP): 23 nM
- IC50 (Recombinant human FGFR2; FP): 14 nM

Compound: CNC(=O)c1cc(CCc2cnc(Nc3ccc(N4C[C@@H](C)N(C)[C@@H](C)C4)cc3)nc2)c(Cl)c(OC)c1 [Compound 175]
- IC50 (FGFR3 kinase): 6 nM
- IC50 (RT-112): 30 nM
- IC50 (KG-1): 11 nM
- IC50 (SNU-16): 12 nM
- IC50 (Recombinant human FGFR1; read-out: FGFR1 (FP) IC50): 12 nM
- IC50 (Recombinant human FGFR2; read-out: FGFR2 (FP) IC50): 8 nM

Compound: CNC(=O)c1cc(OC)c(F)c(COc2cnc(Nc3cccc(N4C[C@@H](C)N[C@@H](C)C4)c3)nc2)c1F [Compound 275]
- IC50 (FGFR3 kinase): 14 nM
- IC50 (RT-112): 62 nM
- IC50 (KG-1): 46 nM
- IC50 (SNU-16): 18 nM
- IC50 (Recombinant human FGFR1; read-out: FGFR1 (FP) IC50): 14 nM
- IC50 (Recombinant human FGFR2; read-out: FGFR2 (FP) IC50): 9 nM

Compound: CNC(=O)c1cc(COc2cnc(Nc3cccc(S(C)(=O)=O)c3)nc2)c(F)c(OC)c1 [Compound 227]
- IC50 (FGFR3 kinase): 25 nM
- IC50 (RT-112): 85 nM
- IC50 (KG-1): 35 nM
- IC50 (SNU-16): 20 nM
- IC50 (Recombinant human FGFR1; read-out: FGFR1 (FP) IC50): 23 nM
- IC50 (Recombinant human FGFR2; read-out: FGFR2 (FP) IC50): 8 nM

Compound: CNC(=O)c1cc(COc2cnc(Nc3ccc(N4CCOCC4)nc3)nc2)c(Cl)c(OC)c1 [Compound 247]
- IC50 (FGFR3 kinase): 23 nM
- IC50 (RT-112): 57 nM
- IC50 (KG-1): 42 nM
- IC50 (SNU-16): 28 nM
- IC50 (Recombinant human FGFR1; read-out: FGFR1 (FP) IC50): 34 nM
- IC50 (Recombinant human FGFR2; read-out: FGFR2 (FP) IC50): 16 nM

Compound: CNC(=O)c1cc(COc2cnc(Nc3ccc(N4CCN(C)CC4)c(OC)c3)nc2)c(F)c(OC)c1 [Compound 269]
- IC50 (FGFR3 kinase): 5 nM
- IC50 (RT-112): 5 nM
- IC50 (KG-1): 6 nM
- IC50 (SNU-16): 6 nM
- IC50 (Recombinant human FGFR1; read-out: FGFR1 (FP) IC50): 10 nM
- IC50 (Recombinant human FGFR2; read-out: FGFR2 (FP) IC50): 7 nM

Compound: CNC(=O)c1cc(COc2cnc(Nc3ccc(CN4CCOCC4)cc3)nc2)c(F)c(OC)c1 [Compound 242]
- IC50 (FGFR3 kinase): 13 nM
- IC50 (RT-112): 32 nM
- IC50 (KG-1): 10 nM
- IC50 (SNU-16): 14 nM
- IC50 (Recombinant human FGFR1; read-out: FGFR1 (FP) IC50): 18 nM
- IC50 (Recombinant human FGFR2; read-out: FGFR2 (FP) IC50): 10 nM

Compound: CCN(CC)CCc1cccc(Nc2ncc(OCc3cc(C(=O)NC)cc(OC)c3F)cn2)c1 [Compound 243]
- IC50 (FGFR3 kinase): 9 nM
- IC50 (RT-112): 15 nM
- IC50 (KG-1): 69 nM
- IC50 (SNU-16): 6 nM
- IC50 (Recombinant human FGFR1; read-out: FGFR1 (FP) IC50): 20 nM
- IC50 (Recombinant human FGFR2; read-out: FGFR2 (FP) IC50): 9 nM

Compound: CNC(=O)c1cc(COc2cnc(Nc3ccc4c(c3)NCC4)nc2)c(F)c(OC)c1 [Compound 214]
- IC50 (FGFR3 kinase): 19 nM
- IC50 (RT-112): 90 nM
- IC50 (KG-1): 6 nM
- IC50 (SNU-16): 27 nM
- IC50 (Recombinant human FGFR1; read-out: FGFR1 (FP) IC50): 67 nM
- IC50 (Recombinant human FGFR2; read-out: FGFR2 (FP) IC50): 25 nM

Compound: CNC(=O)c1cc(COc2cnc(Nc3cccc(OC)c3)nc2)c(F)c(OC)c1 [Compound 212]
- IC50 (FGFR3 kinase): 80 nM
- IC50 (RT-112): 57 nM
- IC50 (KG-1): 59 nM
- IC50 (SNU-16): 14 nM
- IC50 (Recombinant human FGFR1; read-out: FGFR1 (FP) IC50): 26 nM
- IC50 (Recombinant human FGFR2; read-out: FGFR2 (FP) IC50): 16 nM

Compound: CNC(=O)c1cc(CCc2cnc(Nc3ccc(O)cc3)nc2)c(Cl)c(OC)c1 [Compound 81]
- IC50 (FGFR3 kinase): 26 nM
- IC50 (RT-112): 133 nM
- IC50 (KG-1): 26 nM
- IC50 (SNU-16): 59 nM
- IC50 (Recombinant human FGFR1; read-out: FGFR1 (FP) IC50): 17 nM
- IC50 (Recombinant human FGFR2; read-out: FGFR2 (FP) IC50): 13 nM

Compound: CCCN1CC(c2ccc(Nc3ncc(OCc4cc(C(=O)NC)cc(OC)c4F)cn3)cn2)C1 [Compound 241]
- IC50 (FGFR3 kinase): 19 nM
- IC50 (RT-112): 112 nM
- IC50 (KG-1): 162 nM
- IC50 (SNU-16): 31 nM
- IC50 (Recombinant human FGFR1; read-out: FGFR1 (FP) IC50): 31 nM
- IC50 (Recombinant human FGFR2; read-out: FGFR2 (FP) IC50): 21 nM

From patent US9701680B2, “Pyrimidine and pyridine compounds and their usage” (HUTCHISON MEDIPHARMA LIMITED, priority 2013, dated 2017)
